Measured values: patent US20210346315A1, “COMPOSITION FOR INHIBITION OR TREATMENT OF BRAIN TUMORS OR SYMPTOMS ATTRIBUTABLE THERETO” (ENEOS Corporation, priority 2018, published 2021)

Legend:
[1] = test system: human-derived glioma cell line U251MG; assay: Cell proliferative capacity / cell viability of human-derived glioma cell line U251MG (CCK-8); format: cell-based; details: for cell viability (proliferation) vs the control group: after 96 hours, 0.1, 1.0, 5 or 10 μM
Description: (§1) As the glioma cell lines, the mouse-derived glioma cell line GL261 (transferred from Graduate School of Health Sciences, Gunma University) and the human-derived glioma cell line U251MG (DS Pharma Biomedical Co., Ltd.) were used. First, the glioma cell lines were seeded in a 96-well plate (FALCON) at 2,000 cells/well. Using Dulbecco's modified Eagle's medium (DMEM) (Nacalai Tesque, Inc.) containing 10% fetal bovine serum (FBS) (Valeant Pharmaceuticals International, Inc.), 100 U/mL penicillin, and 100 μg/mL streptomycin (Meiji Seika Pharma Co., Ltd.), seeded cells were cultured for 24 hours at 37° C. under 5% CO2. Then, the medium was replaced with DMEM containing 10% FBS so that the concentration was 90 μL/well. After the medium replacement, a test solution was further added according to each test group. Specifically, in the control group, 10 μL of PBS containing 0.1% DMSO (Nacalai Tesque, Inc.) was added (n=6). In the temozolomide group, temozolomide (Tokyo Chemical Industry Co., Ltd.) was dissolved in PBS containing 0.1% DMSO to obtain a temozolomide solution. Then, 10 μL of the temozolomide solution was added so that the final concentration of temozolomide was 300 μM (n=6). In the astaxanthin and adonixanthin groups, astaxanthin or adonixanthin was dissolved in PBS containing 0.1% DMSO to obtain an astaxanthin or adonixanthin solution. Then, 10 μL each of the astaxanthin or adonixanthin solution was added so that the final concentration of astaxanthin or adonixanthin was 0.1, 1.0, 5, or 10 μM (n=6). At 72 hours and 96 hours after addition of each test solution, the viable cell count of GL261 and U251MG was measured using cell counting kit-8 (CCK-8) (DOJINDO LABORATORIES). Specifically, using a microplate reader (Varioscan Flash 2.4, Thermo Fisher Scientific K.K.) at the time of addition and 2 hours after addition of CCK-8, the absorbance was measured at 450 nm, and the viable cell count was measured using the absorbance at 650 nm as a reference. For example, in the case of 72-hour treatment, CCK-8 was added 70 hours after addition of the test solution, and the absorbance was measured. The absorbance was measured again 2 hours after addition of CCK-8. The value obtained by subtracting the absorbance immediately after addition of CCK-8 as the background from the absorbance 2 hours after addition of CCK-8 was used as data. In the same manner as in Test Example 1, effects of adonirubin or zeaxanthin on the cell proliferative capacity after 72 hours of a human- or mouse-derived glioma cell line were investigated. As adonirubin, the adonirubin obtained in Preparation Example 1 was used, and as zeaxanthin, Zeaxanthin (manufacturer code ASB-00026504, ChromaDex Corporation) was used. Specifically, the glioma cell lines were seeded in a 96-well plate at 2,000 cells/well. Using DMEM containing 10% FBS, 100 U/mL penicillin, and 100 μg/mL streptomycin, seeded cells were cultured for 24 hours at 37° C. under 5% CO2. Then, the medium was replaced with DMEM containing 10% FBS so that the concentration was 90 μL/well. After the medium replacement, a test solution was further added according to each test group. Specifically, in the control group, 10 μL of PBS containing 0.1% DMSO (Nacalai Tesque, Inc.) was added (n=6). In the temozolomide group, temozolomide was dissolved in PBS containing 0.1% DMSO to obtain a temozolomide solution. Then, 10 μL of the temozolomide solution was added so that the final concentration of temozolomide was 300 μM (n=6). In the adonirubin and zeaxanthin groups, adonirubin or zeaxanthin was dissolved in PBS containing 0.1% DMSO to obtain an adonirubin or zeaxanthin solution. Then, 10 μL each of the adonirubin or zeaxanthin solution was added so that the final concentration of adonirubin or zeaxanthin was 0.1, 1.0, 5, or 10 μM (n=6). At 72 hours after addition of each test solution, the cell proliferative capacity of GL261 and U251MG was evaluated using CCK-8 in the same manner as in Test Example 1.

[2] = test system: mouse-derived glioma cell line GL261; assay: Cell proliferative capacity / cell viability of mouse-derived glioma cell line GL261 (CCK-8); format: cell-based; details: for average value of cell viability, concentration dependence: 0.1 to 10 μM; for cell viability (proliferation) vs the control group: GL261, after 96 hours, 0.1, 1.0, 5 or 10 μM
Description: as §1

[3] = Intracerebral distribution of astaxanthin or adonixanthin in cynomolgus monkey (HPLC of brain organs); format: in vivo; details: 50 mg/kg body weight once daily for 10 days into the stomach, FIG. 5
Description: Each of the astaxanthin and the adonixanthin obtained in Preparation Example 1 was weighed, followed by suspension by adding olive oil (product number 150-00276, manufactured by Wako Pure Chemical Industries, Ltd.) to prepare so that each concentration was 10 mg/mL, thus obtaining an astaxanthin dosing solution and an adonixanthin dosing solution. Each dosing solution was prepared at the time of use, and stored on ice and protected from light until administration.
As experimental animals, cynomolgus monkeys were used. […] The dose in each administration was calculated based on the latest body weight at each administration time point (body weight was measured using an electric balance (HP-40K or GP-40K, both of which were manufactured by A&D Company, Limited) on each of the day of initiation of acclimation, the day of end of acclimation, the day of initiation of administration, and before administration on the day 8 of administration). […]
Each of the concentration of adonixanthin in each organ collected from the adonixanthin-administering monkey (concentration relative to the weight of each organ) and the concentration of astaxanthin in each organ collected from the astaxanthin-administering monkey (concentration relative to the weight of each organ) was measured. […]

[4] = after 72 hours, 0.1, 1.0, 5 or 10 μM
[5] = GL261, after 72 hours, 10 μM group
[6] = GL261, after 72 hours, all concentrations (0.1, 1.0, 5 or 10 μM)

Structure (SMILES) | cell proliferative capacity vs the control group [1, 4] | cell viability (proliferation) vs the control group ([1]; FIG. 1) | cell proliferative capacity vs the control group [2, 5] | average value of cell viability, concentration dependence ([2]; GL261, after 72 hours) | cell viability (proliferation) vs the control group ([2]; FIG. 2) | proliferation inhibition compared with the zeaxanthin group ([2]; GL261, after 72 hours) | cell proliferative capacity vs the control group [2, 6] | proliferation inhibition compared with the adonirubin group ([1]; after 72 hours) | cell proliferative capacity vs the control group ([1]; after 72 hours, 1, 5, and 10 μM groups) | proliferation inhibition compared with the astaxanthin group ([1]; after 96 hours, FIG. 1) | proliferation inhibition compared with the astaxanthin group ([2]; GL261, after 96 hours, FIG. 2) | concentration in the brain compared with astaxanthin [3] | concentration in each organ of the brain (transfer into the brain and retention) ([3]; organs collected after blood sampling 4 hours after last administration)
CC1=C(/C=C/C(C)=C/C=C/C(C)=C/C=C/C=C(C)/C=C/C=C(C)/C=C/C2=C(C)C(=O)C(O)CC2(C)C)C(C)(C)CC(O)C1=O (stereo not drawn) [astaxanthin, 3,3′-dihydroxy-β,β-carotene-4,4′-dione] | tends to be concentration-dependently inhibited | significantly inhibited at any concentration | significantly inhibited | tends to concentration-dependently decrease | significantly inhibited at any concentration | – | – | – | – | – | – | – | –
CC1=C(/C=C/C(C)=C/C=C/C(C)=C/C=C/C=C(C)/C=C/C=C(C)/C=C/C2=C(C)C(=O)C(O)CC2(C)C)C(C)(C)CCC1=O (stereo not drawn) [adonirubin, 3-hydroxy-β,β-carotene-4,4′-dione] | tends to be inhibited at any concentration | – | – | – | – | inhibited at a higher level | significantly inhibited at any concentration | – | – | – | – | – | –
CC1=C(/C=C/C(C)=C/C=C/C(C)=C/C=C/C=C(C)/C=C/C=C(C)/C=C/C2=C(C)C[C@@H](O)CC2(C)C)C(C)(C)C[C@H](O)C1 [zeaxanthin, β,β-carotene-3,3′-diol] | significantly inhibited at any concentration | – | significantly inhibited | – | – | – | tends to be inhibited at any concentration | inhibited at a higher level | – | – | – | – | –
CC1=C(/C=C/C(C)=C/C=C/C(C)=C/C=C/C=C(C)/C=C/C=C(C)/C=C/C2=C(C)C(=O)C(O)CC2(C)C)C(C)(C)CC(O)C1 (stereo not drawn) [adonixanthin, 3,3′-dihydroxy-β,β-carotene-4-one] | tends to be concentration-dependently inhibited | significantly inhibited at any concentration | – | tends to concentration-dependently decrease | significantly inhibited at any concentration | – | significantly inhibited | – | significantly inhibited | inhibited at a higher level | inhibited at a higher level | transferred into the brain at a higher concentration | transferred into the brain at a high concentration
